Reference: ChEMBL document CHEMBL1201862, “PubChem BioAssay data set” (2004)
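How tested: cells in 96-well plates exposed to compound for 48 hours at five concentrations. GI50 is the concentration that inhibits growth by half.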 Calls of active or inactive are those of the source. Rule as the data show it: active = GI50 up to about 1.1 µM and inactive = higher.

Assays:
Experiment in all cases: NCI anticancer screen, dose series, 48 h
BT-549 = system: BT-549
DU-145 = system: DU-145
MCF7 = system: MCF7
MDA-N = system: MDA-N

| Compound | GI50 (BT-549) | GI50 (DU-145) | GI50 (MCF7) | GI50 (MDA-N) |
| --- | --- | --- | --- | --- |
| COc1cc(/C=C2\C[C@H]3[C@@H]4CCc5cc(O)ccc5[C@H]4CC[C@]3(C)C2=O)cc(OC)c1OC | 18.9 µM (inactive) | 3.69 µM (inactive) | 52.6 µM (inactive) | 15.6 µM (inactive) |
| O=C(CC(O)c1cccnc1)CC(O)c1cccnc1 (centres undefined) | 11.7 µM (inactive) | 32.2 µM (inactive) | 4.34 µM (inactive) | 7.26 µM (inactive) |
| CC[C@@H]1ON(C)[C@H]2CN(C)C(=O)[C@@H]12 | – | > 100 µM (inactive) | > 100 µM (inactive) | > 100 µM (inactive) |
| CN1C2CCC1CC(CCNC(c1ccccc1)c1ccccc1)C2 (centres undefined) | 49.3 µM (inactive) | > 100 µM (inactive) | – | 12.6 µM (inactive) |
| C#CC1(O)C(COP(=O)(O)OC(COCCCCCCCCCCCCCCCCCC)COP(=O)(O)OCC2OC(n3cc(C)c(=O)[nH]c3=O)CC2N=[N+]=[N-])OC(n2ccc(N)nc2=O)C1O (centres undefined) | 2.68 µM (inactive) | 0.946 µM (active) | 0.122 µM (active) | 1.14 µM (inactive) |
| COC(=O)C1CCC(=O)N1C(c1ccc(OC)cc1)c1ccc2c(c1)OCO2 (centres undefined) | 89.7 µM (inactive) | > 100 µM (inactive) | 36.7 µM (inactive) | 7.46 µM (inactive) |
| CCc1cc(Cc2cc(CC)c(NC(=O)C(=O)CC(=O)c3sc(-c4cccnc4)nc3C)c(CC)c2)cc(CC)c1NC(=O)C(=O)CC(=O)c1sc(-c2cccnc2)nc1C | > 100 µM (inactive) | > 100 µM (inactive) | > 100 µM (inactive) | > 100 µM (inactive) |
| CC(C)(C)[Si](C)(C)OC1(CCc2ccccc2OS(=O)(=O)C(F)(F)F)CCCC=C1COCc1ccccc1 (centres undefined) | > 100 µM (inactive) | > 100 µM (inactive) | 19.1 µM (inactive) | – |
| COc1ccc(NC(C)=O)cc1N1C(=O)/C(=C\c2cc(OC)c(OC)c(OC)c2)S(=O)(=O)C1c1ccccc1 (centres undefined) | > 100 µM (inactive) | 75 µM (inactive) | 33 µM (inactive) | 34.1 µM (inactive) |
| O=c1oc2ccc([N+](=O)[O-])cc2cc1-c1csc(-c2ccccc2)n1 | > 100 µM (inactive) | > 100 µM (inactive) | > 100 µM (inactive) | > 100 µM (inactive) |
| CC(C)(C)OC(=O)N1CCC(NC(=O)NC2CCN(C(=O)OC(C)(C)C)CC2)CC1 | 0.118 µM (active) | – | > 100 µM (inactive) | > 100 µM (inactive) |
| COC1(OC)C2(Cl)C(Cl)=C(Cl)C1(Cl)C1COCC12 (centres undefined) | > 100 µM (inactive) | 13.4 µM (inactive) | > 100 µM (inactive) | > 20.4 µM (inactive) |
| CN(C)CC1CN=C(N)O1 (centres undefined) | – | > 100 µM (inactive) | > 100 µM (inactive) | > 100 µM (inactive) |
| CC(C)CCCC(C)[C@H]1CC[C@H]2[C@@H]3CC[C@H]4C[C@@H](CCC=C(c5cc(Cl)c(O)c(C(=O)O)c5)c5cc(Cl)c(O)c(C(=O)O)c5)CC[C@]4(C)[C@H]3CC[C@]12C (some centres undefined) | > 50 µM (inactive) | > 50 µM (inactive) | > 50 µM (inactive) | – |
| Cn1c2ccccc2c2c3c(c4c5ccccc5n(C)c4c21)C(=O)c1ccccc1C3=O | 20.4 µM (inactive) | > 100 µM (inactive) | 67.1 µM (inactive) | 72.8 µM (inactive) |
| C=C(CBr)CCCOCc1ccccc1 | 15 µM (inactive) | 39.1 µM (inactive) | 30.5 µM (inactive) | > 10 µM (inactive) |
| c1ccc(C2=C(c3ccccc3)Sc3nnc(CCCCCCCCc4nnc5n4NC(c4ccccc4)=C(c4ccccc4)S5)n3N2)cc1 | 46.6 µM (inactive) | > 100 µM (inactive) | 35.8 µM (inactive) | – |
| Cc1ccc(NC(=O)c2cc3ccccc3c(/N=N/c3cc(S(=O)(=O)O)ccc3O)c2O)c(C)c1 | 17.8 µM (inactive) | 19.2 µM (inactive) | – | 32.2 µM (inactive) |
| Cc1ccc(/C=N/n2c(Cc3ccccc3)n[nH]c2=O)cc1 | 19.8 µM (inactive) | > 100 µM (inactive) | – | > 100 µM (inactive) |
| COc1cc(C2c3cc4c(cc3[C@@H](Nc3ccc(F)cc3)C3COC[C@H]23)OCO4)cc(OC)c1O (some centres undefined) | – | – | 1.1 µM (active) | 7.66 µM (inactive) |
